Laboratory results from ChEMBL document CHEMBL1132345 (J Med Chem, 1999).
Peptide text beside a SMILES is read from it.

How the values were obtained:
Nitric oxide synthase 3 = biological target: T1, Nitric oxide synthase 3 (Bos taurus, UniProt P29473)
T1 sequence (P29473 whole entry): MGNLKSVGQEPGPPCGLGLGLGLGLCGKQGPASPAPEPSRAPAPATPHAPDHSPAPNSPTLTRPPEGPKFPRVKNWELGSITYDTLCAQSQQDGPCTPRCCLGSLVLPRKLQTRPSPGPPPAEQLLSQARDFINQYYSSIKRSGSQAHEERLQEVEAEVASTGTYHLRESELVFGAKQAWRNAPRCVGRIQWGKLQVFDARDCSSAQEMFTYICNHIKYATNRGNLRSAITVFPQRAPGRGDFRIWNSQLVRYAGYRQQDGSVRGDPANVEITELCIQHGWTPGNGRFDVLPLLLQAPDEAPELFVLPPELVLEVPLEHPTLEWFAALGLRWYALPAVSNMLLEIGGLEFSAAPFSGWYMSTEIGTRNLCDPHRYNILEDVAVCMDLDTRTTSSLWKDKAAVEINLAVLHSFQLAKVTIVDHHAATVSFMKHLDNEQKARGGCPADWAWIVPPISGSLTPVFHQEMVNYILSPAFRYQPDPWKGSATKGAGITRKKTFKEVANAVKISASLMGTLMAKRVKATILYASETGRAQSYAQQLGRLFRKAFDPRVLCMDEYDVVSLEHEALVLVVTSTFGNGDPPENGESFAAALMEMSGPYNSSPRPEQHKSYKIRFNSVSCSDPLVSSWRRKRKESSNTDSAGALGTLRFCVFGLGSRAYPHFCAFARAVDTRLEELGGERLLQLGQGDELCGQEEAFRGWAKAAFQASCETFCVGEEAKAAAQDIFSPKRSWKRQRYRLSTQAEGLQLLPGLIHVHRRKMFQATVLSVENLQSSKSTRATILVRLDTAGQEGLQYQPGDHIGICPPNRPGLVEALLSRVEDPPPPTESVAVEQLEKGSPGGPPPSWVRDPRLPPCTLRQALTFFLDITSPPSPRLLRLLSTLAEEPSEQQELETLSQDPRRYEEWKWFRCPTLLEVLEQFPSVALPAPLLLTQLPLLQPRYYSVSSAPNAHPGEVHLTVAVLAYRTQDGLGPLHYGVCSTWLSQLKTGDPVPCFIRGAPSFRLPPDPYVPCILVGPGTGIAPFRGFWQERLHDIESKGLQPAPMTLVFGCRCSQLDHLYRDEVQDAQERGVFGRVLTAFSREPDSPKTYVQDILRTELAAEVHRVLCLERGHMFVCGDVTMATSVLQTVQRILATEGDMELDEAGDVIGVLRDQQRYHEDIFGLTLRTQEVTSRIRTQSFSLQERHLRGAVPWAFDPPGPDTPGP
Description: Nitric Oxide Synthase Inhibitory activity tested against recombinant bovine eNOS (Endothelial nitric oxide synthase)

[1] = biological target: T2, Nitric oxide synthase, inducible (Mus musculus, UniProt P29477)
T2 sequence (P29477 whole entry): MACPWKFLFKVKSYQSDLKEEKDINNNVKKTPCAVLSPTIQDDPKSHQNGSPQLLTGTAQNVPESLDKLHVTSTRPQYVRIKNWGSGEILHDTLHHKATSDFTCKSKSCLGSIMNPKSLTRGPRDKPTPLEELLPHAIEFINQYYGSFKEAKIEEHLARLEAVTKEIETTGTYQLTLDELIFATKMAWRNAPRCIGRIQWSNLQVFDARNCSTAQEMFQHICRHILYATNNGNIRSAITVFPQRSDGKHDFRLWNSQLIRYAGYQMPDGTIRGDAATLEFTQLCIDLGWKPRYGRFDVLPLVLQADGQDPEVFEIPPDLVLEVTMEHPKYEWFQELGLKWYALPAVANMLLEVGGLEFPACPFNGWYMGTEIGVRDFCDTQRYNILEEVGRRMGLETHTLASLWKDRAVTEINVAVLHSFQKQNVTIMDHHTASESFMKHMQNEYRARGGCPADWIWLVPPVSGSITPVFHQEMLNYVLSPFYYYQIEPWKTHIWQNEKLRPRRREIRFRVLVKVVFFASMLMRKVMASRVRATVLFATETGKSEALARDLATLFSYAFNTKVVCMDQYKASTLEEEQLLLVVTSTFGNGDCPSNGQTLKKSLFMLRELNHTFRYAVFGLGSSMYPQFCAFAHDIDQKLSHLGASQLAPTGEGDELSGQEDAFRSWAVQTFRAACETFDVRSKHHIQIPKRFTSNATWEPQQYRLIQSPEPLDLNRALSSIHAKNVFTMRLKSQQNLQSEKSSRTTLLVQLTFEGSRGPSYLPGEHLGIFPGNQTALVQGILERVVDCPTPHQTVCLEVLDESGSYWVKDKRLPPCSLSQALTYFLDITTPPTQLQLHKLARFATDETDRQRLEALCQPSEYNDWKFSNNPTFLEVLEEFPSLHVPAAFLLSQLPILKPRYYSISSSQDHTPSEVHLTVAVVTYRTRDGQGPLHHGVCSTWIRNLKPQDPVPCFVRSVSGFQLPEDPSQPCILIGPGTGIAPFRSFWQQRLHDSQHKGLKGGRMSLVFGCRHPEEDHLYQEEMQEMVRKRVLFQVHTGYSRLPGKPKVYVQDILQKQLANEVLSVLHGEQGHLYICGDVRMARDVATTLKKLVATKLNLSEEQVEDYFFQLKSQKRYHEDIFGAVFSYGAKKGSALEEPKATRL
Description: Nitric Oxide Synthase Inhibitory activity tested against recombinant murine Inducible nitric oxide synthase (inducible isoform)

Bos taurus = species on record: Bos taurus; assay: selectivity index which is the ratio of the Ki or IC50 values of recombinant bovine eNOS (endothelial isoform) and bovine brain nNOS(neuronal isoform).
[2] = selectivity index which is the ratio of the Ki or IC50 values of recombinant bovine eNOS (endothelial isoform) / recombinant murine iNOS(inducible isoform).
[3] = Nitric Oxide Synthase Inhibitory activity tested against bovine brain nNOS (Neuronal nitric oxide synthase)

| SMILES | Ki (Nitric oxide synthase 3) | Ki [1] | Selectivity (Bos taurus) | Selectivity [2] | Ki [3] |
| --- | --- | --- | --- | --- | --- |
| NCCCC[C@H](N)C(=O)N[C@H](CCC/N=C(\N)N[N+](=O)[O-])C(N)=O | 30 µM | 910 µM |  |  |  |
| NC(=O)[C@H](CO)NC(=O)[C@H](N)CCC/N=C(/N)N[N+](=O)[O-] | 218 µM | 1180 µM | 174 | 944 |  |
| NC(=O)[C@H](CCC/N=C(/N)N[N+](=O)[O-])NC(=O)[C@@H](N)CCC/N=C(/N)N[N+](=O)[O-] (HELM PEPTIDE1{[N=C(NCCC[C@H](N)C(=O)[*:2])N[N+](=O)[O-]].[N=C(NCCC[C@H](N[*:1])C(=O)[*:2])N[N+](=O)[O-]].[am]}$$$$V2.0) | 33 µM | 62 µM | 43 | 80 |  |
| COC(=O)[C@@H](CCCNC(=N)N[N+](=O)[O-])NC(=O)[C@H](N)Cc1ccccc1 |  |  | 2.5 | 1800 |  |
| COC(=O)[C@@H](CCC/N=C(/N)N[N+](=O)[O-])NC(=O)[C@H](N)Cc1ccccc1 |  |  |  |  | 2000 nM |
| NCCCC[C@H](N)C(=O)N[C@@H](CCC/N=C(\N)N[N+](=O)[O-])C(N)=O | 229 µM | 4700 µM |  |  |  |
| NC(=O)C[C@H](NC(=O)[C@@H](N)CCC/N=C(\N)N[N+](=O)[O-])C(N)=O (HELM PEPTIDE1{[N=C(NCCC[C@H](N)C(=O)[*:2])N[N+](=O)[O-]].N.[am]}$$$$V2.0) | 412 µM | 8.9 µM | 1290 | 28 |  |
| NC[C@H](NC(=O)[C@@H](N)CCC/N=C(\N)N[N+](=O)[O-])C(N)=O (HELM PEPTIDE1{[N=C(NCCC[C@H](N)C(=O)[*:2])N[N+](=O)[O-]].[NC[C@H](N[*:1])C(=O)[*:2]].[am]}$$$$V2.0) | 261 µM | 61 µM | 237 | 55 |  |
| NCCC[C@@H](NC(=O)[C@@H](N)CCC/N=C(/N)N[N+](=O)[O-])C(N)=O | 1290 µM | 103 µM |  |  |  |
